Source: patent publication US9540691B2, “Assays and methods for selecting a treatment regimen for a subject with depression” (THE GENERAL HOSPITAL CORPORATION, priority 2011, dated 2017)
Like-named read-outs stand apart in the source and are kept apart here.

Tested on: MDD patients carrying the indicated conditions
Conditions: with SSRI
Procedure: Folate levels are classified as either low (<=2.5 ng/ml) or normal; and homocysteine levels as either normal or elevated (>=[…]). The presence or absence of at least one […] allele for the MTHFR gene are entered as a dichotomous variable (present or absent). […] Using folate as an example predicator, the presence or absence of a low serum-folate level along with treatment assignment can be entered in a 2×2, factorial ANOVA, using depression improvement scores (baseline minus endpoint HAM-D-17 scores) as the dependant variable. […] Similar analyses (i.e. separate 2×2 ANOVA's) can be performed substituting the presence of low folate levels for the presence of other predictors as described herein. Similarly, the effect of other predictors can be indicated by the interaction term representing the potential modulating influence of those variables.
Particularly, specific genetic and biomarkers that were assessed include the following: • (a) BMI calculation of at least about 30 kg/m^2; • (b) an expression ratio of SAM/SAH smaller than 2.8 (e.g., 2.71) as measured in a plasma sample; • (c) a level of 4-HNE no less than 3.28 μg/mL (as measured in a plasma sample); • (d) presence of rare variants CT or TT at position 677 of SEQ ID NO: 1 corresponding to a portion of a genomic nucleic acid sequence of methylenetetrahydrofolate reductase (MTHFR) (abbreviated as “MTHFR 677” below); • (e) presence of rare variants AG or GG at position 2756 of SEQ ID NO: 2 corresponding to a portion of genomic nucleic acid sequence of methionine synthase (MTR) (abbreviated as “MTR 2756” below); and • (f) presence of rare variants AG or GG at position 66 of SEQ ID NO: 3 corresponding to a portion of genomic nucleic acid sequence of methionine synthase reductase (MTRR) (abbreviated as “MTRR 66” below).
The efficacy effect is determined by measuring the mean change in the HAMD-17 score and HAMD-28 score by the end of Phase I and Phase II, as compared to the baseline.

[1] = Phase I, interaction of BMI with the treatment
[2] = Phase I, interaction of HNE-his with the treatment
[3] = Phase I, interaction of SAM/SAH with the treatment
[4] = Phase II, 25 =< BMI < 30 kg/m^2 (18, 10)

CN1c2c(nc(N)[nH]c2=O)NC[C@@H]1CNc1ccc(C(=O)N[C@@H](CCC(=O)O)C(=O)O)cc1 [6(S)-5-MTHF, 6(S)-5-methyltetrahydrofolate]
Effect, change in HAMD-17 score (Phase I, MTRR 66 AA and HNE-His < median (8,5)): −1.167
Effect, change in HAMD-28 score (Phase I, MTRR 66 AA and HNE-His < median = 3.28 (plasma sample)): −4.167
Effect, change in HAMD-17 score (Phase I, MTRR 66 AA and SAM/SAH >= median (9,6)): −0.125
Effect, change in HAMD-28 score (Phase I, MTRR 66 AA and SAM/SAH >= median): 0.500
Effect, change in HAMD-17 score (Phase I, MTRR 66 AG or GG and HNE-His >= median (24,11)): −5.958
Effect, change in HAMD-28 score (Phase I, MTRR 66 AG or GG and HNE-His >= median): −6.975
Effect, change in HAMD-17 score (Phase I, MTRR 66 AG or GG and SAM/SAH < median (24,10)): −5.062
Effect, change in HAMD-28 score (Phase I, MTRR 66 AG or GG and SAM/SAH < median = 2.71 (plasma sample)): −6.498
Effect, change in HAMD-17 score (Phase I, SAM/SAH < median and HNE-His >= median (19,7)): −3.670
Effect, change in HAMD-28 score (Phase I, SAM/SAH < median and HNE-His >= median): −4.227
Effect, change in HAMD-17 score (Phase I, SAM/SAH >= median and HNE-His < median (18,8)): −0.250
Effect, change in HAMD-28 score (Phase I, SAM/SAH >= median and HNE-His < median): −0.750
Effect, change in HAMD-17 score: BMI*treat [1]: −0.567
Effect, change in HAMD-28 score: BMI*treat [1]: −0.668
Effect, change in HAMD-17 score: HNE-his*treat [2]: −0.465
Effect, change in HAMD-28 score: HNE-his*treat [2]: −0.133
Effect, change in HAMD-17 score: SAM/SAH*treat [3]: 0.495
Effect, change in HAMD-28 score: SAM/SAH*treat (last line) [3]: 0.972
Effect, change in HAMD-17 score: baseHAMD-17*treat (Phase I, interaction of base HAMD-17 with the treatment): 0.165
Effect, change in HAMD-28 score: SAM/SAH*treat (first line under HAMD28) (Phase I, interaction with the treatment): 0.495
Effect, change in HAMD-17 score [4]: 2.000
Effect, change in HAMD-28 score [4]: 0.000
Effect, change in HAMD-17 score (Phase II, BMI < 25 (14, 7)): −1.400
Effect, change in HAMD-28 score (Phase II, BMI < 25 (14, 7)): −2.300
Effect, change in HAMD-17 score (Phase II, BMI < 30 kg/m^2 and HNE-His < median (19, 9)): 3.667
Effect, change in HAMD-28 score (Phase II, BMI < 30 kg/m^2 and HNE-His < median): 1.833
Effect, change in HAMD-17 score (Phase II, BMI < 30 kg/m^2 and SAM/SAH >= median (16,8)): 1.500
Effect, change in HAMD-28 score (Phase II, BMI < 30 kg/m^2 and SAM/SAH >= median): 2.500
Effect, change in HAMD-28 score (Phase II, BMI >= 30 kg/m^2 (40,21)): −3.245
Effect, change in HAMD-17 score (Phase II, BMI >= 30 kg/m^2 and HNE-His >= median (23, 11)): −4.233
Effect, change in HAMD-28 score (Phase II, BMI >= 30 kg/m^2 and HNE-His >= median): −4.933
Effect, change in HAMD-17 score (Phase II, BMI >= 30 kg/m^2 and SAM/SAH < median (21,9)): −9.200
Effect, change in HAMD-28 score (Phase II, BMI >= 30 kg/m^2 and SAM/SAH < median = 2.71 (plasma sample)): −10.350
Effect, change in HAMD-17 score (Phase II, MTHFR 677 CC and BMI < 30 kg/m^2 (17,8)): −2.267
Effect, change in HAMD-28 score (Phase II, MTHFR 677 CC and BMI < 30 kg/m^2): −3.000
Effect, change in HAMD-17 score (Phase II, MTHFR 677 CC and HNE-His < median (20,11)): −0.857
Effect, change in HAMD-28 score (Phase II, MTHFR 677 CC and HNE-His < median = 3.28 (plasma sample)): −0.536
Effect, change in HAMD-17 score (Phase II, MTHFR 677 CC and MTR 2756 AA (29,13)): −0.571
Effect, change in HAMD-28 score (Phase II, MTHFR 677 CC and MTR 2756 AA): 0.048
Effect, change in HAMD-17 score (Phase II, MTHFR 677 CT or TT and BMI >= 30 kg/m^2 (13,6)): −7.333
Effect, change in HAMD-28 score (Phase II, MTHFR 677 CT or TT and BMI >= 30 kg/m^2): −8.667
Effect, change in HAMD-17 score (Phase II, MTHFR 677 CT or TT and HNE-His >= median (11,6)): −7.500
Effect, change in HAMD-28 score (Phase II, MTHFR 677 CT or TT and HNE-His >= median): −7.500
Effect, change in HAMD-17 score (Phase II, MTHFR 677 CT or TT and MTR 2756 AG or GG (8,4)): −10.33
Effect, change in HAMD-28 score (Phase II, MTHFR 677 CT or TT and MTR 2756 AG or GG): −13.00
Effect, change in HAMD-17 score (Phase II, MTR 2756 AA (45,21)): −0.427
Effect, change in HAMD-17 score (Phase II, MTR 2756 AA and BMI < 30 kg/m^2 (17,7)): 1.167
Effect, change in HAMD-28 score (Phase II, MTR 2756 AA and BMI < 30 kg/m^2): 0.917
Effect, change in HAMD-17 score (Phase II, MTR 2756 AA and HNE-His < median (26,13)): 0.300
Effect, change in HAMD-28 score (Phase II, MTR 2756 AA and HNE-His < median): −0.125
Effect, change in HAMD-17 score (Phase II, MTR 2756 AA and MTRR 66 AA (11,5)): −8.000
Effect, change in HAMD-17 score (Phase II, MTR 2756 AA and MTRR 66 AA and BMI < 30 kg/m^2 (7,4)): −4.333
Effect, change in HAMD-28 score (Phase II, MTR 2756 AA and MTRR 66 AA and BMI < 30 kg/m^2): −4.667
Effect, change in HAMD-17 score (Phase II, MTR 2756 AA and MTRR 66 AA and HNE-His < median (6,4)): −8.667
Effect, change in HAMD-28 score (Phase II, MTR 2756 AA and MTRR 66 AA and HNE-His < median = 3.28 (plasma sample)): −9.000
Effect, change in HAMD-17 score (Phase II, MTR 2756 AA and MTRR 66 AA and SAM/SAH >= median (6,3)): −7.000
Effect, change in HAMD-28 score (Phase II, MTR 2756 AA and MTRR 66 AA and SAM/SAH >= median): −7.500
